Laboratory results reported in ChEMBL document CHEMBL1122533 (J Med Chem, 1984).
Peptide text beside a SMILES is read from it. * marks the point of attachment. Cbz = O=C(OCc1ccccc1)*; Boc = CC(C)(C)OC(=O)*

Experiments:
[1] = test system: Rattus norvegicus; assay: Compound was tested for the in vivo antagonist activity calculated from ED50 value, by estimating at 25 mL the mean blood volume in a 300-g rat and expressed as molarity; assay type: functional
[2] = test system: Rattus norvegicus; assay: In vivo antagonistic effect on gastric acid secretion in the perfused rat stomach; assay type: functional

| SMILES | Activity [1] | ED50 [2] [mg/kg] |
| --- | --- | --- |
| CSCC[C@H](NC(=O)[C@H](Cc1c[nH]c2ccccc12)NC(=O)CNC(=O)[C@H](Cc1ccc(O)cc1)NC(=O)OC(C)(C)C)C(=O)N[C@@H](CC(=O)O)C(N)=O (Boc-YGWMD-NH2) | 3.1e-05 | 2 |
| CSCC[C@H](NC(=O)[C@H](Cc1c[nH]c2ccccc12)NC(=O)CNC(=O)[C@H](Cc1ccc(O)cc1)NC(=O)[C@H](C)NC(=O)[C@H](CCC(=O)O)NC(=O)OCc1ccccc1)C(=O)N[C@@H](CC(=O)O)C(N)=O (Cbz-EAYGWMD-NH2) | 1.8e-05 | 1.5 |
| CSCC[C@H](NC(=O)[C@H](Cc1c[nH]c2ccccc12)NC(=O)CNC(=O)OC(C)(C)C)C(=O)N[C@@H](CC(=O)O)C(N)=O (Boc-GWMD-NH2) | 0.0001 | 5 |
| CSCC[C@H](NC(=O)[C@H](Cc1c[nH]c2ccccc12)NC(=O)OC(C)(C)C)C(=O)N[C@@H](CC(=O)O)C(N)=O (Boc-Trp-Met-Asp-NH2) | 0.00016 | 7.5 |
